“Also recorded” adds a separate entry of the source. Like-named read-outs stand apart in the source and are kept apart here. Where a SMILES comes first, the peptide text is derived from it. Where no end group is shown, it is not given here. [ ]: non-standard residue; d: D form. The star is where a group is joined. Biotin = O=C1N[C@H]2[C@H](CS[C@H]2CCCCC(=O)*)N1; βAla = NCCC(=O)O
Columns and labels:
[1] = test system: serum peptidase; assay: Degradation of peptide in 10% fresh mouse serum (HPLC of remaining peptide); conditions: for digestion resistance to serum peptidases (in words): up to 16 hr (FIG. 21)
Description: (§1) Peptide was digested in TBS containing 10% fresh mouse serum or fresh human serum. After incubation at 37° C. for a given time, 1% trifluoro acid was added to remove various serum proteins by precipitation. After short centrifugation, the soluble fraction was analyzed by reversed-phase HPLC using a C18 analysis column. To normalize variation in the total amount of the peptide loaded for each HPLC, the peak of non-protein components contained in the serum, which is absorbed at the wavelength of 220 nm, was used as an internal control. The peak area of undigested peptides was quantitatively monitored by Chromatopac C-R8A (Shimadzu Corp., Kyoto, Japan), and the amount of the remaining peptide was calculated.
(§2) Therefore, the inventor examined the digestion resistance of peptide in vitro in a 10% fresh mouse serum. The amount of a remaining undigested peptide was quantified by HPLC.

[2] = test system: serum peptidase
Description: as §1, §2

[3] = test system: peptidase activity in the serum; assay: Effect of peptidase inhibitor on OVII peptide digestion by mouse serum; type: biochemical; conditions: inhibitor-containing buffer (FIGS. 22-24)
Excerpt: Given the above-mentioned Examples, the inventor examined the effect of peptidase inhibitor on the peptide digestion to identify the peptidase in the serum.

[4] = test system: DO11.10 cells; assay: Antigen presentation by F2-IA^d vascular endothelial cells (CD69 expression by DO11.10 cells); type: cell-based, mouse
Description: EL4 cells were first opsonized with RGD peptide. Next, 5 mg/ml OVA protein was loaded on the cytoplasm by osmotic pressure loading. After sufficient washing, 2×10^6 EL4 cells were added to a confluent culture medium of F2-IA^d cells on a 24-well plate (cultured for 2 days in advance in the presence of 500 U/ml rmIFN-γ). As a control, EL4 and EG7 mock-loaded with PBS were RGD-modified in the same manner and used. EL4 and other target cells were added to F2-IA^d, and the cell mixture was cultured for 24 hr. As for the control well wherein F2-IA^d cells were directly loaded with OVAII peptide, the cells were pulsed with peptide for 2 hr at the end of the culture. After removing the non-adherent cells and debris of dead cells, the surface of the adhered F2-IA^d cells was sufficiently washed. In an antigen presentation inhibitory experiment using chloroquine, 100 μM chloroquine was added 30 min before addition of EL4, EL4 loaded with OVA or 0.25 mg/ml OVA protein. Furthermore, F2-IA^d cells were cultured for 3 days in the continuous presence of chloroquine.
Whether the F2-IA^d cells presented the target antigen polypeptide on the cell surface was evaluated by monitoring the expression of CD69 by DO11.10 cells. The antigen-presenting F2-IA^d cells and DO11.10 cells were mixed and centrifuged to contact the cells with one another. After 6 hr and 24 hr, the cells were stained with biotin-labeled anti CD69 mAb (H1.2F3, BD Biosciences), and the expression of CD69 by DO11.10 cells was detected by flow cytometry (stained positive with FITC-labeled KJ1.26 (anti clonotypic TCR mAb)).

[5] = test system: DO11.10 cells; assay: Growth of CD4 T cells: proliferation of DO11.10 cells by OVII modified peptides (3H-thymidine); type: cell-based, mouse; conditions: for sensitization activity compared to OVII+ (in words): effect of lysine, FIG. 20
[6] = TBS containing 10% fresh mouse serum; conditions: 37° C., up to 16 hr
[7] = test system: EG7 tumor; assay: Antitumor activity by in vivo immunization with OVA-derived peptides (EL4 / EG7 tumor); conditions: CBF1 mouse, peptide-loaded LPS blast i.p. 3 times; EL4 / EG7 tumor (FIG. 8)
Excerpt: CBF1 mouse was immunized with LPS blast of splenocyte pulsed with either λ repressor peptide ([…]; SEQ ID NO: 39) or OVAII peptide as a Th epitope peptide, and K^b-binding OVA-I peptide, which is a CTL inducing peptide. LPS blast derived from one spleen was pulsed with peptide, and intraperitoneally injected to immunize two mice. The next day of the third immunization, 9×10^6 EL4 cells and 1.2×10^7 EG7 cells were intradermally transplanted in a pair on the back skin of the mice. The tumor size was measured every other day. Immunization was performed once again 2 weeks from the tumor transplantation.
To verify the anti-tumor effect of inducing tumor-specific Th cells in vivo, the inventor compared the immunization protocol that induces 1. CTL alone, 2. CTL and a third party antigen-specific Th cell, and 3. CTL and tumor-specific Th cell. As the antigen presenting cell, LPS blast of spleen cell was used, and the APC loaded with each peptide alone or the mixture of each peptide was injected intraperitoneally 3 times (once per week). On the day of third immunization, 9×10^6 EL4 and 1.2×10^7 EG7 tumor were innoculated on the opposite sides of the back, and the tumor diameter was measured from day 4.

## CC[C@H](C)[C@H](N)C(=O)N[C@@H](CO)C(=O)N[C@@H](CCC(N)=O)C(=O)N[C@@H](C)C(=O)N[C@H](C(=O)N[C@@H](Cc1c[nH]cn1)C(=O)N[C@@H](C)C(=O)N[C@@H](C)C(=O)N[C@@H](Cc1c[nH]cn1)C(=O)N[C@@H](C)C(=O)N[C@@H](CCC(=O)O)C(=O)N[C@H](C(=O)N[C@@H](CC(N)=O)C(=O)N[C@@H](CCC(=O)O)C(=O)N[C@@H](C)C(=O)N1CCC[C@H]1C(=O)NCCC(=O)O)[C@@H](C)CC)C(C)C [OVIIPβ] (HELM PEPTIDE1{I.S.Q.A.V.H.A.A.H.A.E.I.N.E.A.P.[bAla]}$$$$V2.0; N-terminus and C-terminus assumed)
[1]; 10% fresh mouse serum
  digestion resistance to serum peptidases (in words): the protection effect was further enhanced, and the amount of the peptide remaining 16 hr later increased

## CC[C@H](C)[C@H](N)C(=O)N[C@@H](CO)C(=O)N[C@@H](CCC(N)=O)C(=O)N[C@@H](C)C(=O)N[C@H](C(=O)N[C@@H](Cc1c[nH]cn1)C(=O)N[C@@H](C)C(=O)N[C@@H](C)C(=O)N[C@@H](Cc1c[nH]cn1)C(=O)N[C@@H](C)C(=O)N[C@@H](CCC(=O)O)C(=O)N[C@H](C(=O)N[C@@H](CC(N)=O)C(=O)N[C@@H](CCC(=O)O)C(=O)N[C@@H](C)C(=O)NCC(=O)NCCC(=O)O)[C@@H](C)CC)C(C)C [OVIIβ] (HELM PEPTIDE1{I.S.Q.A.V.H.A.A.H.A.E.I.N.E.A.G.[bAla]}$$$$V2.0; N-terminus and C-terminus assumed)
[2]
  protection of peptide from digestion: protects about half of the peptide

## CC[C@H](C)[C@H](NC(=O)[C@H](CCC(=O)O)NC(=O)[C@H](C)NC(=O)[C@H](Cc1c[nH]cn1)NC(=O)[C@H](C)NC(=O)[C@H](C)NC(=O)[C@H](Cc1c[nH]cn1)NC(=O)[C@@H](NC(=O)[C@H](C)NC(=O)[C@H](CCC(N)=O)NC(=O)[C@H](CO)NC(=O)[C@@H](NC(=O)[C@H](CO)NC(=O)[C@@H]1CCCN1)[C@@H](C)CC)C(C)C)C(=O)N[C@@H](CC(N)=O)C(=O)N[C@@H](CCC(=O)O)C(=O)N[C@@H](C)C(=O)N1CCC[C@H]1C(=O)NCCC(=O)O [POVIIPβ]
[1]; 10% fresh mouse serum
  digestion resistance to serum peptidases (in words): further additional protective effect

## CC[C@H](C)[C@H](NC(=O)[C@H](CCC(=O)O)NC(=O)[C@H](C)NC(=O)[C@H](Cc1c[nH]cn1)NC(=O)[C@H](C)NC(=O)[C@H](C)NC(=O)[C@H](Cc1c[nH]cn1)NC(=O)[C@@H](NC(=O)[C@H](C)NC(=O)[C@H](CCC(N)=O)NC(=O)[C@H](CO)NC(=O)[C@@H](NC(=O)[C@H](CCCCNC(=O)CCCC[C@@H]1SC[C@@H]2NC(=O)N[C@@H]21)NC(=O)[C@H](CO)NC(=O)[C@@H]1CCCN1)[C@@H](C)CC)C(C)C)C(=O)N[C@@H](CC(N)=O)C(=O)N[C@@H](CCC(=O)O)C(=O)N[C@@H](C)C(=O)N[C@@H](CCCCNC(=O)CCCC[C@@H]1SC[C@@H]2NC(=O)N[C@@H]21)C(=O)N1CCC[C@H]1C(=O)NCCC(=O)O [PbOVIIbPβ] (H-PSK(Biotin)ISQAVHAAHAEINEAK(Biotin)P[βAla]-OH; N-terminus and C-terminus assumed)
[1]; mouse, serum
  level of epitope remaining in the serum compared with POVIIPβ: almost the same for both peptides

## CC[C@H](C)[C@H](NC(=O)[C@H](CCC(=O)O)NC(=O)[C@H](C)NC(=O)[C@H](Cc1c[nH]cn1)NC(=O)[C@H](C)NC(=O)[C@H](C)NC(=O)[C@H](Cc1c[nH]cn1)NC(=O)[C@@H](NC(=O)[C@H](C)NC(=O)[C@H](CCC(N)=O)NC(=O)[C@H](CO)NC(=O)[C@@H](NC(=O)[C@H](CCCCNC(=O)CCCC[C@@H]1SC[C@@H]2NC(=O)N[C@@H]21)NC(=O)[C@@H](N)CO)[C@@H](C)CC)C(C)C)C(=O)N[C@@H](CC(N)=O)C(=O)N[C@@H](CCC(=O)O)C(=O)N[C@@H](C)C(=O)N[C@@H](CCCNC(=N)N)C(=O)O [bOVII+] (H-SK(Biotin)ISQAVHAAHAEINEAR-OH; N-terminus and C-terminus assumed)
[2]
  digestion resistance to serum peptidases (in words): no digestion resistance

## CC(C)C[C@H](NC(=O)[C@@H](O)[C@H](N)Cc1ccccc1)C(=O)O [bestatin]
[3]
  inhibition of OVII peptide digestion / peptidase activity in serum: about half of the peptidase activity was suppressed

## CCN(CC)CCCC(C)Nc1ccnc2cc(Cl)ccc12 (centres unmarked) [chloroquine]
[4]; 100 μM chloroquine (FIG. 4)
  antigen presentation of OVA-loaded EL4 by F2-IA^d cells: sensitive to chloroquine
[4]; 100 μM chloroquine (FIGS. 3, 4)
  presentation of OVA protein by F2-IA^d cells: decreased

## Ac-ISQAVHAAHAEINEA [ac-OVII]
[5]; 10% FCS-DMEM, compared to OVII (FIG. 11)
  sensitization activity / Th inducing activity (in words): almost no influence on the sensitization activity; also recorded: no difference from OVII
[2]
  digestion resistance to serum peptidases (in words): higher protection effect than the above-mentioned single modification of the C terminal side

## HELM PEPTIDE1{I.S.Q.A.V.H.A.A.H.A.E.I.N.E.A.P.[bAla]}$$$$V2.0 (N-terminus and C-terminus assumed; SMILES CC[C@H](C)[C@H](N)C(=O)N[C@@H](CO)C(=O)N[C@@H](CCC(N)=O)C(=O)N[C@@H](C)C(=O)N[C@H](C(=O)N[C@@H](Cc1c[nH]cn1)C(=O)N[C@@H](C)C(=O)N[C@@H](C)C(=O)N[C@@H](Cc1c[nH]cn1)C(=O)N[C@@H](C)C(=O)N[C@@H](CCC(=O)O)C(=O)N[C@H](C(=O)N[C@@H](CC(N)=O)C(=O)N[C@@H](CCC(=O)O)C(=O)N[C@@H](C)C(=O)N1CCC[C@H]1C(=O)NCCC(=O)O)[C@@H](C)CC)C(C)C)
[6]
  cleaved bond: Ile-S, major

## ISQAVHAAHAEINEAPA
[6]
  cleaved bond: Ile-S, major

## ISQAVHAAHAEINEAPA [OVIIPA]
[1]; 10% fresh mouse serum, within 4 hr
  protection of peptide from digestion: protects about half of the peptide

## LEDARRLKAIYEKKK [X peptide, third party antigen peptide]
[7]
  tumor control, Th peptide together with OVA-I: could delay tumor growth as compared to CTL single induction, but the mouse finally died

## OVA-I: K^b-binding OVA-I peptide, which is a CTL inducing peptide (SIINFEKL; UniProt P01012 258-265, looked up, fragment)
[7]
  tumor control, CTL-inducing peptide alone: tumor control was only possible to a limited degree

## PSK^bioISQAVHAAHAEINEARK^bioPβA
[6]
  fragment found: product which has lost the biotin molecule on the N terminal side, major

## SKISQAVHAAHAEINEAR [KOVII+]
[5]
  sensitization activity compared to OVII+ (in words): no difference in the sensitization activity compared to OVII+

## SKISQAVHAAHAEINEARK [KOVII+K]
[5]
  sensitization activity compared to OVII+ (in words): no difference in the sensitization activity compared to OVII+

## SKISQAVHAAHAEINEARK^bioG
[6]
  cleaved bond: Ser-K, major
  fragment found: product missing one biotin

## SK^bioISQAVHAAHAEINEAR (H-SK(Biotin)ISQAVHAAHAEINEAR-OH; N-terminus and C-terminus assumed; SMILES CC[C@H](C)[C@H](NC(=O)[C@H](CCC(=O)O)NC(=O)[C@H](C)NC(=O)[C@H](Cc1c[nH]cn1)NC(=O)[C@H](C)NC(=O)[C@H](C)NC(=O)[C@H](Cc1c[nH]cn1)NC(=O)[C@@H](NC(=O)[C@H](C)NC(=O)[C@H](CCC(N)=O)NC(=O)[C@H](CO)NC(=O)[C@@H](NC(=O)[C@H](CCCCNC(=O)CCCC[C@@H]1SC[C@@H]2NC(=O)N[C@@H]21)NC(=O)[C@@H](N)CO)[C@@H](C)CC)C(C)C)C(=O)N[C@@H](CC(N)=O)C(=O)N[C@@H](CCC(=O)O)C(=O)N[C@@H](C)C(=O)N[C@@H](CCCNC(=N)N)C(=O)O)
[6]
  cleaved bond: A-Arg, major
  fragment found: product missing one biotin

## SK^bioISQAVHAAHAEINEARK^bio
[6]
  cleaved bond: A-R, major
  fragment found: product missing one biotin

## SK^bioISQAVHAAHAEINEARK^bio (SK(Biotin)ISQAVHAAHAEINEARK(Biotin)) [bOVII+b]
[5]; bOVII+ vs KOVII+, bOVII+b vs KOVII+K (FIG. 20)
  activity to induce proliferation of DO11.10 Th cell relative to KOVII+ and KOVII+K, respectively: about 10 fold
[5]; relative to peptides with Pro at second position from C terminal and/or β-Ala at C terminal (OVIIβ, OVIIPA, FIG. 11)
  increase in sensitization activity compared to OVIIβ, OVIIPA: 100 fold

Source: US20140341939A1 (NATIONAL UNIVERSITY CORPORATION KOCHI UNIVERSITY, priority 2011, published 2014)
